“And” between values parts separate entries of the source, which are not always exact repeats. Equal entries are not always repeated.
Key:
[1] = system: tobacco plants transformed with the Pseudomonas 4-HPPD gene; assay: Explant bleaching test on MS agar, 4-HPPD transformants (Example 1); format: in vivo, Nicotiana tabacum var Samsun; details: subset of ZA1296 resistant plants
[2] = system: plants transformed with the Synechocystis sp. PCC6803 4-HPPD gene; assay: Explant bleaching test on MS agar, 4-HPPD transformants (Example 2); format: in vivo, Potato and tomato; details: subset of ZA1296 resistant plants
[3] = system: wild type tobacco; assay: Kill curve of glyphosate in tissue culture; format: in vivo, Nicotiana tabaccum var Samsun; details: 0.005 mM in MS medium, two weeks
Excerpt: Selection on glyphosate A kill curve is constructed for growth of tobacco in tissue culture on glyphosate containing medium. This is done by inserting a stem segment ˜6 mm long and carrying a leaf node into MS medium containing a range of glyphosate isopropylamine concentrations. Four/five stem segments are used at each concentration.

[4] = system: pDV6 plants expressing both glyphosate resistance genes and GST; assay: Pre-em/post-em herbicide treatment of DV6 plants (Table 1); set-up: species or system Tobacco; details: in vivo
[5] = system: primary transformants from pDV6-Bin; assay: Growth on herbicide-containing tissue culture medium; format: in vivo, Tobacco; details: a number of transgenics; 0.01 and 0.05 mM glyphosate; 10 and 40 ppm alachlor
[6] = system: pDV3 primary transformants (GOX/EPSPS tobacco); assay: Glyphosate spray test of pDV3 lines; format: in vivo, Nicotiana tabaccum var Samsun; set-up: scale not given here
Description: (§1) A kill curve is established for the effect of glyphosate on wild type tobacco. Wild type tobacco growing in tissue culture is sub-cultured by taking stem segments and growing in fresh medium to generate 20 new plants. These are grown in tissue culture for one month before transfer to 3 inch pots in John Innes No 3 compost. They are initially covered in fleece to protect them. After uncovering they are allowed to acclimatise for four days before being sprayed. After spraying watering is only into the saucers i.e. no water is allowed to touch the leaves for five days. Scoring was done 8 days and 28 days after treatment.
(§2) Following construction of the glyphosate kill curve, a number of pDV1, 2 and 3 lines are spray tested with appropriate rates of glyphosate.

[7] = system: wild type controls; assay: Growth on herbicide-containing tissue culture medium; format: in vivo, Tobacco; details: 0.01 and 0.05 mM glyphosate; 10 and 40 ppm alachlor
[8] = system: DV6/HPPD tobacco; assay: Herbicide trial of DV6/HPPD cross (Example 10); format: in vivo; details: 800 g/ha on seedlings surviving 300 g/ha ZA1296
[9] = system: tobacco from cross DV3 #43B x ET4-208; assay: Glyphosate spray of DV3 #43B x ET4-208 seedlings; format: in vivo; details: 500 and 800 g/ha on seedlings tolerant to bleaching herbicides; scored 14 and 28 DAT
[10] = system: Wild type plants; assay: Pre-em/post-em herbicide treatment (Table 1); format: in vivo, Tobacco; details: post-em 800 g/ha
[11] = system: Wildtype tobacco; assay: Glyphosate spray test (Table 8 control); format: in vivo, Nicotiana tabaccum var Samsun
Description: as §1, §2

[12] = no pre-em, third line (plant not given)

CS(=O)(=O)c1cc(C(F)(F)F)ccc1C(=O)c1cnoc1C1CC1 [Isoxaflutole, 5-cyclopropyl-4-(2-methylsulphonyl-4-trifluoromethylbenzoyl)isoxazole]
resistance of the herbicide resistant transgenic plants [1]: even more resistant
resistance of the herbicide resistant transgenic plants [2]: resistant

CC(C)N.O=C(O)CNCP(=O)(O)O [Glyphosate isopropylamine]
Growth of explant [3]: No growth in any organ

O=C(O)CNCP(=O)(O)O [Glyphosate, glyphosate]
replicate score for damage, replicate a [4]: 75 and 100
replicate score for damage, replicate b [4]: 0
replicate score for damage, replicate c [4]: 0
replicate score for damage, replicate d [4]: 0 and 95
growth on tissue culture medium [5]: grow successfully
dose/response to glyphosate spray (damage) ([6]; pDV3 #11, 100 g/ha): 0
dose/response to glyphosate spray (damage) ([6]; pDV3 #11, 300 g/ha): 0
dose/response to glyphosate spray (damage) ([6]; pDV3 #11, 1000 g/ha): 25
dose/response to glyphosate spray (damage) ([6]; pDV3 #11, 3000 g/ha): 70
dose/response to glyphosate spray (damage) ([6]; pDV3 #11, 9000 g/ha): 80
dose/response to glyphosate spray (damage) ([6]; pDV3 #14, 100 g/ha): 7
dose/response to glyphosate spray (damage) ([6]; pDV3 #14, 300 g/ha): 22
dose/response to glyphosate spray (damage) ([6]; pDV3 #14, 1000 g/ha): 13
dose/response to glyphosate spray (damage) ([6]; pDV3 #14, 3000 g/ha): 33
dose/response to glyphosate spray (damage) ([6]; pDV3 #14, 9000 g/ha): 76
dose/response to glyphosate spray (damage) ([6]; pDV3 #19, 100 g/ha): 0
dose/response to glyphosate spray (damage) ([6]; pDV3 #19, 300 g/ha): 0
dose/response to glyphosate spray (damage) ([6]; pDV3 #19, 1000 g/ha): 0
dose/response to glyphosate spray (damage) ([6]; pDV3 #19, 3000 g/ha): 35
dose/response to glyphosate spray (damage) ([6]; pDV3 #19, 9000 g/ha): 80
dose/response to glyphosate spray (damage) ([6]; pDV3 #21, 100 g/ha): 0
dose/response to glyphosate spray (damage) ([6]; pDV3 #21, 300 g/ha): 5
dose/response to glyphosate spray (damage) ([6]; pDV3 #21, 1000 g/ha): 0
dose/response to glyphosate spray (damage) ([6]; pDV3 #21, 3000 g/ha): 24
dose/response to glyphosate spray (damage) ([6]; pDV3 #21, 9000 g/ha): 78
dose/response to glyphosate spray (damage) ([6]; pDV3 #31, 100 g/ha): 12
dose/response to glyphosate spray (damage) ([6]; pDV3 #31, 300 g/ha): 0
dose/response to glyphosate spray (damage) ([6]; pDV3 #31, 1000 g/ha): 4
dose/response to glyphosate spray (damage) ([6]; pDV3 #31, 3000 g/ha): 26
dose/response to glyphosate spray (damage) ([6]; pDV3 #31, 9000 g/ha): 78
dose/response to glyphosate spray (damage) ([6]; pDV3 #34, 100 g/ha): 0
dose/response to glyphosate spray (damage) ([6]; pDV3 #34, 300 g/ha): 0
dose/response to glyphosate spray (damage) ([6]; pDV3 #34, 1000 g/ha): 6
dose/response to glyphosate spray (damage) ([6]; pDV3 #34, 3000 g/ha): 30
dose/response to glyphosate spray (damage) ([6]; pDV3 #34, 9000 g/ha): 63
dose/response to glyphosate spray (damage) ([6]; pDV3 #36, 100 g/ha): 0
dose/response to glyphosate spray (damage) ([6]; pDV3 #36, 300 g/ha): 0
dose/response to glyphosate spray (damage) ([6]; pDV3 #36, 1000 g/ha): 0
dose/response to glyphosate spray (damage) ([6]; pDV3 #36, 3000 g/ha): 0
dose/response to glyphosate spray (damage) ([6]; pDV3 #36, 9000 g/ha): 0
dose/response to glyphosate spray (damage) ([6]; pDV3 #37, 100 g/ha): 0
dose/response to glyphosate spray (damage) ([6]; pDV3 #37, 300 g/ha): 0
dose/response to glyphosate spray (damage) ([6]; pDV3 #37, 1000 g/ha): 9
dose/response to glyphosate spray (damage) ([6]; pDV3 #37, 3000 g/ha): 24
dose/response to glyphosate spray (damage) ([6]; pDV3 #37, 9000 g/ha): 72
dose/response to glyphosate spray (damage) ([6]; pDV3 #43, 100 g/ha): 0
dose/response to glyphosate spray (damage) ([6]; pDV3 #43, 300 g/ha): 0
dose/response to glyphosate spray (damage) ([6]; pDV3 #43, 1000 g/ha): 0
dose/response to glyphosate spray (damage) ([6]; pDV3 #43, 3000 g/ha): 6
dose/response to glyphosate spray (damage) ([6]; pDV3 #43, 9000 g/ha): 73
dose/response to glyphosate spray (damage) ([6]; pDV3 #44, 100 g/ha): 0
dose/response to glyphosate spray (damage) ([6]; pDV3 #44, 300 g/ha): 40
dose/response to glyphosate spray (damage) ([6]; pDV3 #44, 1000 g/ha): 45
dose/response to glyphosate spray (damage) ([6]; pDV3 #44, 3000 g/ha): 78
dose/response to glyphosate spray (damage) ([6]; pDV3 #44, 9000 g/ha): 85
dose/response to glyphosate spray (damage) ([6]; pDV3 #45, 100 g/ha): 0
dose/response to glyphosate spray (damage) ([6]; pDV3 #45, 300 g/ha): 0
dose/response to glyphosate spray (damage) ([6]; pDV3 #45, 1000 g/ha): 3
dose/response to glyphosate spray (damage) ([6]; pDV3 #45, 3000 g/ha): 9
dose/response to glyphosate spray (damage) ([6]; pDV3 #45, 9000 g/ha): 70
dose/response to glyphosate spray (damage) ([6]; pDV3 #47, 100 g/ha): 5
dose/response to glyphosate spray (damage) ([6]; pDV3 #47, 300 g/ha): 0
dose/response to glyphosate spray (damage) ([6]; pDV3 #47, 1000 g/ha): 0
dose/response to glyphosate spray (damage) ([6]; pDV3 #47, 3000 g/ha): 11
dose/response to glyphosate spray (damage) ([6]; pDV3 #47, 9000 g/ha): 72
dose/response to glyphosate spray (damage) ([6]; pDV3 #60, 100 g/ha): 0
dose/response to glyphosate spray (damage) ([6]; pDV3 #60, 300 g/ha): 0
dose/response to glyphosate spray (damage) ([6]; pDV3 #60, 1000 g/ha): 0
dose/response to glyphosate spray (damage) ([6]; pDV3 #60, 3000 g/ha): 19
dose/response to glyphosate spray (damage) ([6]; pDV3 #60, 9000 g/ha): 63
dose/response to glyphosate spray (damage) ([6]; pDV3 #64, 100 g/ha): 0
dose/response to glyphosate spray (damage) ([6]; pDV3 #64, 300 g/ha): 5
dose/response to glyphosate spray (damage) ([6]; pDV3 #64, 1000 g/ha): 0
dose/response to glyphosate spray (damage) ([6]; pDV3 #64, 3000 g/ha): 12
dose/response to glyphosate spray (damage) ([6]; pDV3 #64, 9000 g/ha): 63
growth on tissue culture medium [7]: fail to
tolerance to spray [8]: demonstrate tolerance
resistance to post-emergence spray [9]: resistant
% Phytotoxicity (mean, 21 DAT) ([10]; Wild type, no pre-em treatment): 86.25%
replicate score for damage, replicate a [10, 12]: 90
replicate score for damage, replicate b [10, 12]: 90
replicate score for damage, replicate c [10, 12]: 90
replicate score for damage, replicate d [10, 12]: 75
dose/response to glyphosate spray (damage) ([11]; 12.33 g/ha): 2
dose/response to glyphosate spray (damage) ([11]; 37 g/ha): 3
dose/response to glyphosate spray (damage) ([11]; 100 g/ha): 20
dose/response to glyphosate spray (damage) ([11]; 300 g/ha): 80
dose/response to glyphosate spray (damage) ([11]; 1000 g/ha): 93

From US20030041357A1, “Herbicide resistant plants” (priority 1996, published 2003)
